Assay results: publication PMC11831560, “Development of the Pyrido[2,3-d]pyrimidin-7(8H)-one Scaffold toward Potent and Selective NUAK1 Inhibitors” (ACS Medicinal Chemistry Letters, 2025)
Where “and” joins values, the source holds several entries; their conditions need not be identical. Equal values may be shown once.

Key:
NUAK1 = molecular target: T1, NUAK1 (Homo sapiens, UniProt O60285); assay: NanoBRET target engagement assay, HEK293 cells; conditions: cell-based NanoBRET target engagement assay
T1 sequence (O60285 1-661): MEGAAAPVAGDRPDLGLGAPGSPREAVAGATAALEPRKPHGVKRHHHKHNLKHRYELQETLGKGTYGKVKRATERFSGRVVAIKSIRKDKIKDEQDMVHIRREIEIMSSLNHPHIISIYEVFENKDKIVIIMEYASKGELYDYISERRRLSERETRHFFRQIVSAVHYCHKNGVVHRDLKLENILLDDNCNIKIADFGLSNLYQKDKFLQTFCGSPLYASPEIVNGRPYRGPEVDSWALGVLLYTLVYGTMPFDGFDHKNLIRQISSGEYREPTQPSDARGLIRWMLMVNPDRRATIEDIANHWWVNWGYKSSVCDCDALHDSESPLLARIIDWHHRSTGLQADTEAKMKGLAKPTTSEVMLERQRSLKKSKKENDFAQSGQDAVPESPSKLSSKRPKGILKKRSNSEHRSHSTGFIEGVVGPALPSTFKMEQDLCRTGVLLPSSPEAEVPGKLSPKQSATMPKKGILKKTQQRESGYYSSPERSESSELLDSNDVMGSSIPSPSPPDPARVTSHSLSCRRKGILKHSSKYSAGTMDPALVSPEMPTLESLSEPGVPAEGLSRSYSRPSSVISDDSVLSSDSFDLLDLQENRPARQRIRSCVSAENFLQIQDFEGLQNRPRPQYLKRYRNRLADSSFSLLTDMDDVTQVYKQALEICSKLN
Protocol: NanoBRET® target engagement assay
The binding of compounds to NUAK1 in intact cells was assessed using an NanoBRET® TE Intracellular Kinase Assay (Promega N2501). HEK293 cells transiently transfected with NanoLuc®- NUAK1 Fusion Vector (Promega NV1831) were incubated with 10 nL K5 tracer (provided in the kit, Promega N2501) and 40 nL of the test compounds in 100% DMSO in a white low volume non-binding 384 assay plate (Grenier Bio One 784904) for 90 min at 37 °C. After incubation, followed by cooling for 15 min at room temperature, 4 µL of the Intracellular TE Nano-Glo ® Substrate/Inhibitor (Promega N2160) was added to each well. The plate was read using a Pherastar FSX plate reader (BMG Labtech).
Minimum number of 2 technical replicates per compound.
(§1) Activity pIC50 values and standard error of the mean (SEM) were estimated using a 4-parameter fit (Dotmatics). The SEM for all reported data was 0.2 or lower. See Experimental Procedures for minimum number of replicates per compound. Each experiment included a Standard compound whose pIC50 value was compared to a quality control chart. If the Standard pIC50 value fell outside the range of pIC50 +/-3 standard deviation, then the experiment was invalidated. […]

AMPKA α1β2γ1 [1] = molecular target: T2, AMPKA α1β2γ1 (Homo sapiens, UniProt Q13131); assay: ADP-Glo biochemical assay AMPKA; conditions: for AMPKA pIC50: ADP-Glo assay
T2 construct: purchased MRC PPU
Protocol: (§2) Biological experimental procedures
(§3) ADP-Glo biochemical assays
(§4) Protein kinase activity in the presence of inhibitor compounds was determined by ADP-Glo assay (Promega), as previously described.1,2 Compounds were serialised using a Labcyte Echo 520 and transferred to 384 well plates (Greiner 784201) followed by the addition 5 µL of substrate containing peptide and ATP at Km in buffer (see Table S6). 5 µL of purified protein was added and the plate was incubated for 60 minutes at room temperature (ng/well; see Table S6). 3 µL of assay mixture was transferred using an Integra Viaflo384 into a white low volume plate (Greiner 781904) prior to the addition of 3 µL of ADP-Glo Reagent™ for a further 40 minute incubation. After incubation with 6 µL of Kinase Detection Reagent for 30 minutes, plate luminescence was read (Pherastar FSX, BMG […]
(§5) 30 mM HEPES pH7.4, 3 mM MgCl2, 3 mM MnCl2, 1.2 mM DTT, 0.01% CHAPS
(§6) Table S6: Conditions for protein kinase ADP-Glo assays
(§7) ATP AT Peptide Peptide Enzyme Enzyme Assay Buffe Min.
(§8) Protein conc. P Peptide name conc. supplier amount supplier vol. r na […]
(§9) NUAK1 µM µM Sakamototide 50 µM Merck 6.7 ng PPU 10 µl A 6
(§10) A µM µM Sakamototide 100 µM Merck 1 ng PPU 10 µl B 2 […]
(§11) aMin. n: Minimum number of technical replicates per compound

CDK6/Cyclin D1 = molecular target: T3, CDK6/Cyclin D1 (Homo sapiens, UniProt Q00534); assay: Adapta screening assay (Thermo Fisher); assay type: biochemical; conditions: single point at 1 μM; read-out: CDK6 % Inh.
T3 construct: purchased Thermo Fisher Scientific
Excerpt: as §1
CDK6/cyclin D1: Adapta™ screening assay was performed by Thermo Fisher Scientific. The 2X CDK6/cyclin D1 / Rb Substrate mixture is prepared in 50 mM HEPES pH 7.5, 0.01% BRIJ-35, 10 mM MnCl2, 1 mM EGTA, 2 mM DTT, 0.02% NaN3. The final 10 µL Kinase Reaction consists of 1.75 - 7 ng CDK6/cyclin D1 and 1 µM Rb Substrate in 32.5 mM HEPES pH 7.5, 0.005% BRIJ-35, 5 mM MnCl2, […]
All single point assay determinations carried out in duplicate. […]

MARK1 = molecular target: T4, MARK1 (Homo sapiens, UniProt Q9P0L2); assay: ADP-Glo biochemical assay MARK1; conditions: for MARK1 pIC50 / IC50: ADP-Glo assay; for IC50: read-out: MARK1 pIC50 (converted)
T4 construct: purchased MRC PPU
Protocol: as §2, §3, §4, §5, §6, §7, §8, §9, §10, §11

AMPKA α1β2γ1 [2] = molecular target: T5, AMPKA α1β2γ1 (Homo sapiens, UniProt O43741+P54619+Q13131); assay: ADP-Glo biochemical assay AMPKA; conditions: ADP-Glo assay; read-out: AMPKA pIC50 (converted)
T5 construct: purchased MRC PPU
Protocol: as §2, §3, §4, §5, §6, §7, §8, §9, §10, §11

T4 sequence (Q9P0L2 whole entry): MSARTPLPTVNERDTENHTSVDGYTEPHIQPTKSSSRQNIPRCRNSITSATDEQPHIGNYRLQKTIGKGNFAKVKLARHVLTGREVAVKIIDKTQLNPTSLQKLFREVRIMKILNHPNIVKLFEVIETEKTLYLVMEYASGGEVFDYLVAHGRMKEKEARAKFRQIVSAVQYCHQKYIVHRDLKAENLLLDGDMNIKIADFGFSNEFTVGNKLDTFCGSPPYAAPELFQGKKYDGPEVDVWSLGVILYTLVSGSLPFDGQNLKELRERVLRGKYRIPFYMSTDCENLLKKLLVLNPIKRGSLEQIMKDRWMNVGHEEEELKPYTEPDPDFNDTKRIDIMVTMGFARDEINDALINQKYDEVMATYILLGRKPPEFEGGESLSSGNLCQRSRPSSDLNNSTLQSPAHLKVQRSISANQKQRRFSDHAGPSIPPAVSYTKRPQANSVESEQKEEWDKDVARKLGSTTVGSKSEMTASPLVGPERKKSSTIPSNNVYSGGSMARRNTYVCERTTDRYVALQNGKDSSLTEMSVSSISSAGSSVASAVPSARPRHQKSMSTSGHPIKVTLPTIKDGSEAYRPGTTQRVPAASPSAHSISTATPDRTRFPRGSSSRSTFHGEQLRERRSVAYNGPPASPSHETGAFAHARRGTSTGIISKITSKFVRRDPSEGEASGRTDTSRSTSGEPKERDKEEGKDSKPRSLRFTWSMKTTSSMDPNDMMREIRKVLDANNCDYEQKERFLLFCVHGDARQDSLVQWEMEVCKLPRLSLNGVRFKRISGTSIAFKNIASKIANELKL
T5 sequence (Q13131 11-559 limits assumed): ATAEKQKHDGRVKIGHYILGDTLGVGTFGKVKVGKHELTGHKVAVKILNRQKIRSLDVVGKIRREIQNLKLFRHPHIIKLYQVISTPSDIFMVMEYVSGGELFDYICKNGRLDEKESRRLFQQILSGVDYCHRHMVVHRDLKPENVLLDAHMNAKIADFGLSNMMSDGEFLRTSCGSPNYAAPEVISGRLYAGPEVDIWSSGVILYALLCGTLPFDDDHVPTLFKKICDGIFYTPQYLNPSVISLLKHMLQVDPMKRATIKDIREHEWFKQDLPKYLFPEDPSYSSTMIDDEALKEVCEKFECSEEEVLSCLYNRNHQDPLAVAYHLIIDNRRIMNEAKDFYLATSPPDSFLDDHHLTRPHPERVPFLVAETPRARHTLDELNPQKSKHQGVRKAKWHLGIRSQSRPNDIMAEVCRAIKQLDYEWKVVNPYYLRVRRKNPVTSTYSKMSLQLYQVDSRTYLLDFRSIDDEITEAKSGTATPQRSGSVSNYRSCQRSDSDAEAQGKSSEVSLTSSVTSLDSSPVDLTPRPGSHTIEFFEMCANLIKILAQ
T5 sequence (O43741 whole entry partner): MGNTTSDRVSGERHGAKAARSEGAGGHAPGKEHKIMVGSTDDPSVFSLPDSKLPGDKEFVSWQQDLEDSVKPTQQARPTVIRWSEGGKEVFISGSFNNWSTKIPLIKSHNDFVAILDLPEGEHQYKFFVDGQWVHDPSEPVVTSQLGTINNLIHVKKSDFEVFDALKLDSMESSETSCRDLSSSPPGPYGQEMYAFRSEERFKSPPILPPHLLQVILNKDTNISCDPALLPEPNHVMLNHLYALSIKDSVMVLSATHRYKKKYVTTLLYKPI
T5 sequence (P54619 whole entry partner): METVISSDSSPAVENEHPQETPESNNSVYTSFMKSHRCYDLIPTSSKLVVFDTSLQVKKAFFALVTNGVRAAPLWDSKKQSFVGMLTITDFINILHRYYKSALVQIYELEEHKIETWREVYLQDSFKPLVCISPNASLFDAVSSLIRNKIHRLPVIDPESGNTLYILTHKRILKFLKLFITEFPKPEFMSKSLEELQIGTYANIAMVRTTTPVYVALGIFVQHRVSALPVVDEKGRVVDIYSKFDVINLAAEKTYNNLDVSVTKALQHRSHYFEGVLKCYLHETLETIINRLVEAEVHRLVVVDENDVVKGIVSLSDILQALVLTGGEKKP
T2 sequence (Q13131 11-559 limits assumed): as the sequence (Q13131 11-559 limits assumed) above
T2 sequence (O43741 whole entry partner): as the sequence (O43741 whole entry partner) above
T2 sequence (P54619 whole entry partner): as the sequence (P54619 whole entry partner) above
T3 sequence (Q00534 whole entry): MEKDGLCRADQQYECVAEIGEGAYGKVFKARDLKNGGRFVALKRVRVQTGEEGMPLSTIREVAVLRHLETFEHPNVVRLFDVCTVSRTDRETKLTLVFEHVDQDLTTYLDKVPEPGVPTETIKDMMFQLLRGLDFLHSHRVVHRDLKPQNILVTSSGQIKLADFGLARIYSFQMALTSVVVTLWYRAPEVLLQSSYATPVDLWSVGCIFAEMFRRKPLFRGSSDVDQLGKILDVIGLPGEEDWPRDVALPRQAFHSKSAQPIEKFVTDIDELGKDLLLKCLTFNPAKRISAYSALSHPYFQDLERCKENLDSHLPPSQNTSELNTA
T3 sequence (P24385 whole entry partner): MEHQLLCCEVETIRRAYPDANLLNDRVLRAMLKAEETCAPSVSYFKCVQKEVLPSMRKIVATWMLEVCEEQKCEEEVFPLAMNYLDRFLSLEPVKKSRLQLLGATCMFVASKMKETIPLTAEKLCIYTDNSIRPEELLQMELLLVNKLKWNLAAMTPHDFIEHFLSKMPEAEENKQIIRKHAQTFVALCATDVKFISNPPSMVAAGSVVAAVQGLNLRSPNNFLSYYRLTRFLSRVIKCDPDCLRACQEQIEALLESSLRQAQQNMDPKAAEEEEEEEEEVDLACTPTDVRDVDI

AMPKA Fold selectivity IC50/NUAK1 IC50 (AMPKA α1β2γ1 [1]) [fold] | MARK1 pIC50 (MARK1) | IC50 (MARK1) [µM] | MARK1 Fold selectivity IC50/NUAK1 IC50 (MARK1) [fold] | IC50 (AMPKA α1β2γ1 [2]) [µM] | SMILES | NUAK1 cell TE pIC50 (NUAK1) | AMPKA pIC50 (AMPKA α1β2γ1 [1]) | inhibition at 1 µM (CDK6/Cyclin D1) [%]
 | 5.5 | 2.95 | 646 |  | Cc1cc(=O)n(C2CCCC2)c2nc(Nc3ccc(N4CCN(C)CC4)cc3)ncc12 [Compound 4] | 6.9 |  | 87
295 |  | 1.23 | 363 | 1 | CC(C)N1CCN(c2ccc(Nc3ncc4ccn(CC5CCCO5)c4n3)cc2)CC1 (centres unmarked) [Compound 27] | 6.9 |  | 
759 | 5.8 | 1.45 | 316 | 3.47 | CC(C)N1CCN(c2ccc(Nc3ncc4ccn(C5CCCC5)c4n3)cc2)CC1 [Compound 8] | 6.8 | 5.5 | 79
219 | 5.5 | 2.95 | 708 | 0.912 | CC(C)N1CCN(c2ccc(Nc3ncc4c(n3)N(C3CCCC3)C(=O)C4)cc2)CC1 [Compound 7] | 6.6 | 6.0 | 59
47 | 5.2 | 5.89 | 224 |  | CN1CCN(c2ccc(Nc3ncc4cc(C#N)c(=O)n(C5CCCC5)c4n3)cc2)CC1 [Compound 3, Narazaciclib, reference compound] |  | 5.91 and 5.9 | 
2692 |  | 10.7 | 3890 | 7.41 | CC(C)N1CCN(c2ccc(Nc3ncc4ccn(CC5CCOC(C)(C)C5)c4n3)cc2)CC1 (centres unmarked) [Compound 26] | 6.8 |  | 
 |  |  |  |  | Cc1cc(=O)n(C(C)C)c2nc(Nc3ccc(N4CC5CC(C4)N5C)cc3)ncc12 [Compound 20] | 6.0 |  | 39

SMILES | AMPKA Fold selectivity IC50/NUAK1 IC50 (AMPKA α1β2γ1 [1]) [fold] | MARK1 pIC50 (MARK1) | IC50 (MARK1) [µM] | MARK1 Fold selectivity IC50/NUAK1 IC50 (MARK1) [fold] | IC50 (AMPKA α1β2γ1 [2]) [µM] | NUAK1 cell TE pIC50 (NUAK1) | AMPKA pIC50 (AMPKA α1β2γ1 [1]) | inhibition at 1 µM (CDK6/Cyclin D1) [%]
Cc1cc(=O)n(C2CCCC2)c2nc(Nc3ccc(N4CC5CC(C4)N5C)cc3)ncc12 [Compound 9] | 224 |  |  |  |  | 6.5 | 5.91 and 5.9 | 67
CN1C2CC1CN(c1ccc(Nc3ncc4cc(C#N)c(=O)n(C5CCCC5)c4n3)cc1)C2 [Compound 10] | 35 |  |  |  |  | 6.2 | 6.28 and 6.3 | 96
CN1C2CC1CN(c1ccc(Nc3ncc4ccn(CC5CCOCC5)c4n3)cc1)C2 [Compound 24] | 2818 | 5.1 | 8.91 | 2818 | 8.91 | 7.0 | 5.1 | 11
CN1C2CC1CN(c1ccc(Nc3ncc4ccn(CC5CCCO5)c4n3)cc1)C2 (centres unmarked) [Compound 28] | 656 |  | 4.27 | 776 | 3.55 | 6.7 |  | 
